Structures can show the parent of a compound that is named as a salt.
Each compound was assayed against T1, human GnRH receptor (Homo sapiens, UniProt P30968) (assay: Inhibition of ^125 I-leuprorelin binding to membrane fraction of CHO cells expressing human GnRH receptors). Conditions: CHO cell membrane fraction, 25° C., 60 minutes, concentration of PMB=50% by Hill plot, read-out: IC50 value human GnRH receptor (^125 I-leuprorelin binding inhibitory rate).
T1 construct: expressed in transfected cells; host or cells: CHO (Chinese Hamster Ovary) cells, membrane fraction
T1 sequence (P30968 1-328): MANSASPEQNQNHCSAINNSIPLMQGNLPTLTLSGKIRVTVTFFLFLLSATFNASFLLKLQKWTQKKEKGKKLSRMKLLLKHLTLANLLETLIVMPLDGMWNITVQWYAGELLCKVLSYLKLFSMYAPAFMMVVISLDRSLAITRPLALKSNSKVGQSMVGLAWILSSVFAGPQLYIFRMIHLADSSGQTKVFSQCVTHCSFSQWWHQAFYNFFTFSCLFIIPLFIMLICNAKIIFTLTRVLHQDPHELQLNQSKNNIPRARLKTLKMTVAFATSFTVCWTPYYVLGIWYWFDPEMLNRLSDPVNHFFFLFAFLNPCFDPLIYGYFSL

First: CC(C)Oc1cn(Cc2c(F)cccc2F)c2sc(-c3ccc(NC(=O)C(C)C)cc3)c(CN(C)Cc3ccccc3)c2c1=O [Example 8(4), 4,7-dihydro-2-(4-isobutyrylaminophenyl)-3-(N-benzyl-N-methylaminomethyl)-5-isopropoxy-7-(2,6-difluorobenzyl)-4-oxothieno[2,3-b]pyridine]
Second: CC(C)C(=O)Nc1ccc(-c2sc3c(c2CN(C)Cc2ccccc2)c(=O)c(OC(=O)C(C)C)cn3Cc2c(F)cccc2F)cc1 [Example 11, 4,7-dihydro-2-(4-isobutyrylaminophenyl)-3-(N-benzyl-N-methylaminomethyl)-5-isobutyryloxy-7-(2,6-difluorobenzyl)-4-oxothieno[2,3-b]pyridine hydrochloride]
The IC50 of the first is 2-fold lower: 1 nM for the first, 2 nM for the second. The first is the more potent here.

Compared with `CCOC(=O)COc1cn(Cc2c(F)cccc2F)c2sc(-c3ccc(NC(=O)C(C)C)cc3)c(CN(C)Cc3ccccc3)c2c1=O` [Example 12, 4,7-dihydro-2-(4-isobutyrylaminophenyl)-3-(N-benzyl-N-methylaminomethyl)-5-ethoxycarbonylmethoxy-7-(2,6-difluorobenzyl)-4-oxothieno[2,3-b]pyridine], `CC(C)C(=O)Nc1ccc(-c2sc3c(c2CN(C)Cc2ccccc2)c(=O)c(OS(=O)(=O)C(C)C)cn3Cc2c(F)cccc2F)cc1` [Example 10, 4,7-dihydro-2-(4-isobutyrylaminophenyl)-3-(N-benzyl-N-methylaminomethyl)-5-isopropylsulfonyloxy-7-(2,6-difluorobenzyl)-4-oxothieno[2,3-b]pyridine hydrochloride] is 10-fold lower in IC50: 3 nM for the first, 0.3 nM for the second. The second is the more potent here.

— patent publication US5744479A, “Thienopyridine compounds which have useful pharmaceutical activity” (Takeda Chemical Industries, Ltd., priority 1995, dated 1998)
